These results are taken from US20110218212A1, “PREDICTIVE MARKERS FOR EGFR INHIBITORS TREATMENT” (priority 2007, published 2011).

Read-outs that look alike come from different tables or passages of the source.

The subject of one data set is advanced NSCLC. Kind of data set: open-label predictive marker identification Phase II study of Tarceva monotherapy. To be noted: 264 enrolled patients, 150 mg/day oral. Type of data set: in vivo, human. The procedure: Based on the experience from the BR.21 study, benefiting population was defined as either having objective response, or disease stabilization for ≧12 weeks. Clinical and microarray datasets were analyzed according to a pre-defined statistical plan.
The selection of this dose was based on pharmacokinetic parameters, as well as the safety and tolerability profile of this dose observed in Phase I, II and III trials in heavily pre-treated patients with advanced cancer. Drug levels seen in the plasma of patients with cancer receiving the 150 mg/day dose were consistently above the average plasma concentration of 500 ng/ml targeted for clinical efficacy.
This was an open-label, predictive marker identification Phase II study. The study was conducted in approximately 26 sites in about 12 countries. 264 patients with advanced NSCLC following failure of at least one prior chemotherapy regimen were enrolled over a 12 month period. […] Dose reductions were permitted based on tolerability to drug therapy. Clinical and laboratory parameters were assessed to evaluate disease control and toxicity. Treatment continued until disease progression, unacceptable toxicity or death.
The RECIST (Uni-dimensional Tumour Measurement) criteria were used to evaluate response. […]
A regular status check every 3 months was performed either by a patient's visit to the clinic or by telephone. All deaths were recorded. […]

Data set [1] relates to NSCLC. The note with it: single agent, patients for whom standard therapy for advanced disease has failed, versus placebo; cited from earlier work.
The conditions of data set [2]: patients with cancer, 150 mg/day dose; compared with average plasma concentration targeted for clinical efficacy; cited from earlier work.
For data set [3], the system named is NSCLC. To be noted: cited from earlier work.
In data set [4] the test system is NSCLC. The note with it: second line therapy of NSCLC; cited from earlier work.

Consider `C#Cc1cccc(Nc2ncnc3cc(OCCOC)c(OCCOC)cc23)c1` [Erlotinib], for which, in the data set with advanced NSCLC, the median overall survival is given as 7.6 (CI 7-9) months and the median progression-free survival is 11.3 (CI 8-12) weeks. Also, the “survival of NSCLC patients” value with NSCLC [1] is “significantly prolongs and improves the survival”. Further, the “drug levels in plasma” value in data set [2] was over 500 ng/mL.

On to `CC(=O)O[C@@]12CO[C@@H]1C[C@H](O)[C@@]1(C)C(=O)[C@H](O)C3=C(C)[C@@H](OC(=O)[C@H](O)[C@@H](NC(=O)OC(C)(C)C)c4ccccc4)C[C@@](O)([C@@H](OC(=O)c4ccccc4)[C@H]21)C3(C)C` [docetaxel], for which the survival entry was “improved survival” with NSCLC [3] (second line after cisplatin-based first-line regimens failed, all ages, ECOG performance status 0, 1 or 2) and “no prolongation of survival” in the data set with NSCLC [3] (third-line treatment or beyond).

In the case of `Nc1nc2[nH]cc(CCc3ccc(C(=O)N[C@@H](CCC(=O)O)C(=O)O)cc3)c2c(=O)[nH]1` [pemetrexed], in the data set on NSCLC [4], the “efficacy compared with docetaxel” value was “clinically equivalent efficacy” and the “side effects compared with docetaxel” value is “significantly fewer side effects”.
